# Source: patent US11123330B2, “Methods and compositions for inhibiting mutant EGFR signaling” (The Governing Council of the University of Toronto, priority 2017, dated 2021)
# “Also recorded” adds a separate entry of the source.
# What was measured:
# EGFR-WT = target: T1, EGFR-WT (Homo sapiens, UniProt P00533); test: MaMTH assay, EGFR-WT bait with Shc1 prey; assay type: cell-based; settings: for interaction / complex formation with Shc1 (MaMTH, words): EGFR WT bait; for Average Percent / WT > 50% Inhibition: EGFR-WT bait, Shc1 prey; for Average Percent: retest in triplicate, MaMTH signal remaining (low = inhibition)
# T1 construct: change the phosphorylation status of full-length EGFR proteins in the context of living cells; expressed in transfected cells
# EGFR L858R/T790M = target: T2, EGFR L858R/T790M (Homo sapiens, UniProt P00533, L858R/T790M); test: MaMTH assay, EGFR L858R/T790M bait with Shc1 prey; assay type: cell-based
# T2 construct: change the phosphorylation status of full-length EGFR proteins in the context of living cells; expressed in transfected cells
# EGFR ex19del/T790M/C797S = EGFR ex19del/T790M/C797S (Homo sapiens, UniProt P00533, C797S/DEL746-750/T790M); test: In vitro kinase assay, EGFR ex19del/T790M/C797S kinase domain; assay type: biochemical
# EGFR ex19del-T790M = test: In vitro kinase assay, EGFR ex19del-T790M; assay type: biochemical
# [1] = tested on: EGFR and downstream signaling molecules in PC9 EGFR-ex19del-T790M-C797S cells; test: EGFR activation and downstream signaling in PC9 EGFR-ex19del-T790M-C797S cells; assay type: cell-based
# [2] = tested on: PC9 EGFR ex19del/T790M/C797S organoids; test: Organoid viability, PC9 EGFR ex19del/T790M/C797S organoids; assay type: cell-based; settings: 72 hours with compound
# [3] = tested on: PC9 EGFR ex19del/T790M/C797S cells; test: Cell viability, PC9 EGFR ex19del/T790M/C797S cells; assay type: cell-based; settings: for cell viability in combination with compound 5213777: with 50 nM of compound 5213777, 72 hours, compared to alone; for cell viability in combination with Panitumumab: with 10 ug/ml Panitumumab, 72 hours
# [4] = tested on: Ba/F3 cells expressing EGFR-L858R-T790M-C797S; test: Ba/F3 cell viability (CellTiter-Glo), EGFR-L858R-T790M-C797S; assay type: cell-based; settings: for cell viability in combination with anti-EGFR antibody: with 68 nM Cetuximab or 140 nM Panitumumab
# [5] = tested on: Ba/F3 cells expressing EGFR-ex19del-T790M-C797S; test: Ba/F3 cell viability (CellTiter-Glo), EGFR-ex19del-T790M-C797S; assay type: cell-based; settings: for cell viability in combination with anti-EGFR antibody: with 68 nM Cetuximab or 140 nM Panitumumab
# [6] = tested on: PC9 EGFR ex19del/T790M/C797S cells; test: Caspase 3 and 7 activity, PC9 EGFR ex19del/T790M/C797S cells; assay type: cell-based
# AXL = target: T3, AXL (Homo sapiens, UniProt P30530); test: MaMTH-DS assay, AXL bait with Shc1 prey; assay type: cell-based
# T3 construct: expressed in transfected cells
# T3 sequence (P30530 26-894): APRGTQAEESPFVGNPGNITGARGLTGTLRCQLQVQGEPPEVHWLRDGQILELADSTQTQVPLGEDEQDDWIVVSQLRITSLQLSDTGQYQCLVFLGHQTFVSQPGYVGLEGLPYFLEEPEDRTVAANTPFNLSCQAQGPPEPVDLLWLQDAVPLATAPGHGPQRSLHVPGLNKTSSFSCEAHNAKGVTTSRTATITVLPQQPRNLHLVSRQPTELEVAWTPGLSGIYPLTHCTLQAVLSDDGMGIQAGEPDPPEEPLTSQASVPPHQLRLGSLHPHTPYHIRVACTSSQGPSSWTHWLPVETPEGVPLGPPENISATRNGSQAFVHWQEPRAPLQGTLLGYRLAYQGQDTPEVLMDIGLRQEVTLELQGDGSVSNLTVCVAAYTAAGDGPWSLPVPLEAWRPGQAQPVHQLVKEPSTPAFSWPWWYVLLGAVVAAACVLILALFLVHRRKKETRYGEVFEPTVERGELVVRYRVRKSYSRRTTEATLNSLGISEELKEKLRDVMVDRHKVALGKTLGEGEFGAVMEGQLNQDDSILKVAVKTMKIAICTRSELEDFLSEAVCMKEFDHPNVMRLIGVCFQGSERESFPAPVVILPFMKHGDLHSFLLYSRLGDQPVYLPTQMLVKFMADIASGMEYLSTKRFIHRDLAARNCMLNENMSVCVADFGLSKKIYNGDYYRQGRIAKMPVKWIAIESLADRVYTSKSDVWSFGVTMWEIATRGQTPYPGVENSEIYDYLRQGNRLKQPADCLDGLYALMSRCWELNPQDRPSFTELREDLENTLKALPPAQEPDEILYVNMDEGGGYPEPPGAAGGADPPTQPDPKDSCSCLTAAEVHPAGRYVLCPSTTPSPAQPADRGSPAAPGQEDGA
# Text: To test MaMTH-DS sensitivity and its potential suitability for use in RTK drug screening, we selected several RTKs whose dysfunction is associated with cancer, and prepared stable MaMTH-DS ‘baits’ in our reporter cell lines. We then performed MaMTH-DS assays in the presence of transfected Shcl functional adapter protein ‘prey’ and small-molecule TKIs, including both control molecules and compounds known to specifically target the function of the corresponding RTKs. First, we examined the response of the RTK MET to the TKIs Crizotinib and Erlotinib using MaMTH-DS.
# MaMTH assays. Cells stably expressing bait of interest (EGFR, MET, FGFR4, ALK, AXL) were seeded into 96-well TC-treated plates and grown at 37° C./5% CO2 overnight in DMEM/10% FBS/1% PS to ˜50-60% confluency. Cells were transfected with 50 ng/well of Nub-Shc1 ‘prey’ protein by calcium phosphate precipitation. Five hours after transfection, media was aspirated out and cells were treated with 100 uL of fresh media containing specific compound and 0.5 ug/ml of tetracyline to induce bait expression. After 24 hours, luciferase activity was measured by chemoluminescence.
# [7] = tested on: reporter cells expressing AXL bait; test: Viability of reporter cells expressing AXL bait; assay type: cell-based
# Procedure: (§1) Cell viability assays. MaMTH stable bait cells or Ba/F3 cells were seeded into 96 well plates at 10,000 cells per well. For MaMTH stable cells, the cells were treated the next day with each inhibitor in a dose-dependent manner in addition to 0.5 ug/mL tetracyline to induce bait expression. For BaF3 cells, the cells were treated with each compound the same day as seeding. After 72 hours of drug treatment, cell viability was measured using the CellTiter-Glo assay (Promega).
# [8] = tested on: reporter cells expressing FGFR4 bait; test: Viability of reporter cells expressing FGFR4 bait; assay type: cell-based
# Procedure: as §1
# EGFR-L858R-T790M-C797S = target: T4, EGFR-L858R-T790M-C797S (Homo sapiens, UniProt P00533, C797S/L858R/T790M); test: MaMTH / MaMTH-DS assay, EGFR-L858R-T790M-C797S bait with Shc1 prey; assay type: cell-based; settings: retest in triplicate, MaMTH signal remaining (low = inhibition)
# T4 construct: change the phosphorylation status of full-length EGFR proteins in the context of living cells; expressed in transfected cells
# wild-type EGFR = target: T5, wild-type EGFR (Homo sapiens, UniProt P00533); test: In vitro kinase assay, EGFR WT kinase domain; assay type: biochemical; settings: up to 10 micromolar
# T5 construct: recombinant proteins of the kinase domain of wild-type EGFR; purchased Reaction Biology Corporation
# EGFR double mutants = test: In vitro kinase assay, EGFR double mutants; assay type: biochemical
# [9] = tested on: EGFR and downstream signalling molecules in Ba/F3 EGFR-L858R-T790M-C797S cells; test: Western analysis of EGFR and downstream signalling, Ba/F3 EGFR-L858R-T790M-C797S; assay type: cell-based
# [10] = tested on: EGFR and downstream signalling molecules in Ba/F3 EGFR-ex19del-T790M-C797S cells; test: Western analysis of EGFR and downstream signalling, Ba/F3 EGFR-ex19del-T790M-C797S; assay type: cell-based
# CFBE cells = test: Caspase 3 and 7 activity, CFBE cells; assay type: cell-based
# [11] = tested on: reporter cells expressing MET bait; test: Viability of reporter cells expressing MET bait; assay type: cell-based
# MET = target: T6, MET (Homo sapiens, UniProt P08581); test: MaMTH-DS assay, MET bait with Shc1 prey; assay type: cell-based
# T6 construct: expressed in transfected cells
# FGFR4 = target: T7, FGFR4 (Homo sapiens, UniProt P22455); test: MaMTH-DS assay, FGFR4 bait with Shc1 prey; assay type: cell-based
# T7 construct: expressed in transfected cells
# ALK = target: T8, ALK (Homo sapiens, UniProt Q9UM73); test: MaMTH-DS assay, ALK bait with Shc1 prey; assay type: cell-based
# T8 construct: expressed in transfected cells
# [12] = tested on: reporter cells expressing ALK bait; test: Viability of reporter cells expressing ALK bait; assay type: cell-based
# T6 sequence (P08581 308-1390 limits assumed): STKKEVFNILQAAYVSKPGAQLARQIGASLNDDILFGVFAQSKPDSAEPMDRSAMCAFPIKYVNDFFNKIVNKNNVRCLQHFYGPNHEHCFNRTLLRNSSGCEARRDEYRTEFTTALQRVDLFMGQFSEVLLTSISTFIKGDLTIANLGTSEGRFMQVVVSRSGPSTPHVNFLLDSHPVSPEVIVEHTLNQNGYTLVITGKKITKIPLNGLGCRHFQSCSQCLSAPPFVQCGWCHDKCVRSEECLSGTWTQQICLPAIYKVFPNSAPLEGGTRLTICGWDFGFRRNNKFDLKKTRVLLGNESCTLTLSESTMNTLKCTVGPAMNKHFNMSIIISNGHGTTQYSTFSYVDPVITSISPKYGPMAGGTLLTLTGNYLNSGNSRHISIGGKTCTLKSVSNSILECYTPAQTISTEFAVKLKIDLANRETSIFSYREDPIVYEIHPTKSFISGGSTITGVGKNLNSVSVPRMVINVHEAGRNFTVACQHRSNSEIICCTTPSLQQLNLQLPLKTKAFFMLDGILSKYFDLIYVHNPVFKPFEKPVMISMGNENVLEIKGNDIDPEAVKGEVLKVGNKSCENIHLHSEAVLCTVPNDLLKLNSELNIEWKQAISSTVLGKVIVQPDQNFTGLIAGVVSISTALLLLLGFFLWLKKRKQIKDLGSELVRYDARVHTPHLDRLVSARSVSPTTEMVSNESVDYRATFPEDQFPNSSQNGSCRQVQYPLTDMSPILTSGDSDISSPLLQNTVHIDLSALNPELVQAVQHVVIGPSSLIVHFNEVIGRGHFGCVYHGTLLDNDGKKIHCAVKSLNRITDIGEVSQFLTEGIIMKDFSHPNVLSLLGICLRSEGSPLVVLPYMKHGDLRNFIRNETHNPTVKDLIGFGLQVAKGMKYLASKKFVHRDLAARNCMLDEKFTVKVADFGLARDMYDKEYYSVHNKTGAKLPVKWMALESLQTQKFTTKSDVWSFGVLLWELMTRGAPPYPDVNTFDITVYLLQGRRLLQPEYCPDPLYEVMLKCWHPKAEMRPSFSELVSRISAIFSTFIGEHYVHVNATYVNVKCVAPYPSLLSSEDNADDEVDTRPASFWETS
# T6 sequence (P08581 25-307 partner limits assumed): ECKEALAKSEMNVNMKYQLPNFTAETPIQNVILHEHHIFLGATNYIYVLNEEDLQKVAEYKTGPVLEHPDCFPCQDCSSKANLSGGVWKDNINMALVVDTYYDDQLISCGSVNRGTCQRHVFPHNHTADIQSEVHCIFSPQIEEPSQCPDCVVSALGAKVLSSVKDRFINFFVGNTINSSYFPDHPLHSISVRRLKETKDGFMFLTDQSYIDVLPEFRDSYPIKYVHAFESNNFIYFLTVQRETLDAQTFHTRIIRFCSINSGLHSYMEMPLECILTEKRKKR
# T7 sequence (P22455 22-802): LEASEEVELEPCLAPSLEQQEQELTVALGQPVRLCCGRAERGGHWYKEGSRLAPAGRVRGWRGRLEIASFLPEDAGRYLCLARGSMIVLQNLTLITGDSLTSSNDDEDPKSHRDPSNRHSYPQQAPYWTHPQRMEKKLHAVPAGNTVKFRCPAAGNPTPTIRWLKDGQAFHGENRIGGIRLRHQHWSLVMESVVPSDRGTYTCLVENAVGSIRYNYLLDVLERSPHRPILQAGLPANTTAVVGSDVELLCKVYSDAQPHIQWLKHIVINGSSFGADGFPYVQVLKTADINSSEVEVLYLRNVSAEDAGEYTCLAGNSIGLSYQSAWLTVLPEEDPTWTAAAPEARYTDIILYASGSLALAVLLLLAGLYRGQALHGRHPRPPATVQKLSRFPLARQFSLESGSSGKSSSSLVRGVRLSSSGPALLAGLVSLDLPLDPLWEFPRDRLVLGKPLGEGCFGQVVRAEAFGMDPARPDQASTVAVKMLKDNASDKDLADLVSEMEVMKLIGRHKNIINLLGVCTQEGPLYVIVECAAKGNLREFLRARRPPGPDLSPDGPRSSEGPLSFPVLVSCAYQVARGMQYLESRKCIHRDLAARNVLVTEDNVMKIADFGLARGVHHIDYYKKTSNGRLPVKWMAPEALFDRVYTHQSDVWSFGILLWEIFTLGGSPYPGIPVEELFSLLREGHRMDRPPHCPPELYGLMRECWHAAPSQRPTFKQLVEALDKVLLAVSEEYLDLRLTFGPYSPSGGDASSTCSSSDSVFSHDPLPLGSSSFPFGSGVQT
# T8 sequence (Q9UM73 19-1620): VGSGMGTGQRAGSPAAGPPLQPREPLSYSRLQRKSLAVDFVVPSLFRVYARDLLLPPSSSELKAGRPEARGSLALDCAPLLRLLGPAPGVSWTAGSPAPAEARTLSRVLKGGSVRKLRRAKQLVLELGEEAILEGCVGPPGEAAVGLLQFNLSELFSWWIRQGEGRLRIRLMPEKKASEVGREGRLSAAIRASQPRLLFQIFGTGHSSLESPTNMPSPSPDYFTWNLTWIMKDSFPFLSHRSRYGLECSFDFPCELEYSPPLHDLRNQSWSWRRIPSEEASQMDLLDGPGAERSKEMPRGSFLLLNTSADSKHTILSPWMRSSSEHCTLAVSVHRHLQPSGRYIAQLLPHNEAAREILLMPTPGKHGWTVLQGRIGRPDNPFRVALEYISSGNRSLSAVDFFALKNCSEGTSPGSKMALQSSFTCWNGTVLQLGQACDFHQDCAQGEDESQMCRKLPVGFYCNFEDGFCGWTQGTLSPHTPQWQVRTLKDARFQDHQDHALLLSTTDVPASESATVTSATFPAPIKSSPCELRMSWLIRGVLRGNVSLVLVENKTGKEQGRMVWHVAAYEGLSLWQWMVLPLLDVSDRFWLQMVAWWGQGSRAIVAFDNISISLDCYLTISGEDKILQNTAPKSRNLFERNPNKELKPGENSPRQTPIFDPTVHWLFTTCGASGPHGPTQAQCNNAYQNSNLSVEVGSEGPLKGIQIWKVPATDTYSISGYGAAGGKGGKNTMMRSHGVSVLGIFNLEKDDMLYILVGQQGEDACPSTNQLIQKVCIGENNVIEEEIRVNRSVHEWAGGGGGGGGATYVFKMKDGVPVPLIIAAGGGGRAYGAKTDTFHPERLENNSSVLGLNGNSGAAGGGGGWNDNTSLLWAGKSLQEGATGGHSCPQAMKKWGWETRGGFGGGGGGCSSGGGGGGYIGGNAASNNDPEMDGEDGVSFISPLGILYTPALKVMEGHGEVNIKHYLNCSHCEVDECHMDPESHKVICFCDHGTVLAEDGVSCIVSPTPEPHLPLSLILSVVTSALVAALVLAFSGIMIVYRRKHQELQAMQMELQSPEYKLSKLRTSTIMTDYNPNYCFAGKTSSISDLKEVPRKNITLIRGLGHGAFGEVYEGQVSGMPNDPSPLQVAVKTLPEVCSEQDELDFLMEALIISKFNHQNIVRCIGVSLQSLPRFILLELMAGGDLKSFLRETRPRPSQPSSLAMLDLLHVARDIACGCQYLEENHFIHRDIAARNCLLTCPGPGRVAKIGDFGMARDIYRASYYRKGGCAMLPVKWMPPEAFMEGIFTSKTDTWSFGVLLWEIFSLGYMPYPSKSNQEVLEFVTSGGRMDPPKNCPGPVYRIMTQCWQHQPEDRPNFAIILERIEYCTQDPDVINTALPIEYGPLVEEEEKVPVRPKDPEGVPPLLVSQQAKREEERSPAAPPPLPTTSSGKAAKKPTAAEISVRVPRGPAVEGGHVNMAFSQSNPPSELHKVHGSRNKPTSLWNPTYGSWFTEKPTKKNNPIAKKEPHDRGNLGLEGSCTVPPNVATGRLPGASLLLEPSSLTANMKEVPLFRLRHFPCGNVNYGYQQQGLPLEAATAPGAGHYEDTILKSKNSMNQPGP
smiles,measurement,setting,value
"CCc1nc(C(N)=O)c(Nc2ccc(N3CCC(N4CCN(C)CC4)CC3)c(OC)c2)nc1NC1CCOCC1 [Gilteritinib, 6-ethyl-3-[3-methoxy-4-[4-(4-methylpiperazin-1-yl)piperidin-1-yl]anilino]-5-(oxan-4-ylamino)pyrazine-2-carboxamide]","interaction / complex formation with Shc1 (MaMTH, words)",EGFR-WT,not
same,"interaction / complex formation with Shc1 (MaMTH, words)",EGFR L858R/T790M,inhibited complex formation
same,effect on kinase activity,EGFR ex19del/T790M/C797S,most robust inhibition
same,effect on kinase activity,EGFR ex19del-T790M,preferentially inhibits
same,phosphorylation and/or expression of EGFR and downstream signaling molecules,[1],inhibits EGFR activation and downstream signaling
same,viability of PC9 organoids,[2],dose-dependent reduction
same,cell viability in combination with compound 5213777,[3],increased effect
same,cell viability in combination with Panitumumab,[3],significantly enhanced
C=CC(=O)Nc1cc(Nc2nccc(-c3cn(C)c4ccccc34)n2)c(OC)cc1N(C)CCN(C)C [Osimertinib],cell viability in combination with anti-EGFR antibody,[4],does not cause enhanced reduction
same,cell viability in combination with anti-EGFR antibody,[4]; listed as AZD9291,no such enhancement was evident
same,cell viability in combination with anti-EGFR antibody,[5],does not cause enhanced reduction
same,cell viability in combination with anti-EGFR antibody,[5]; listed as AZD9291,no such enhancement was evident
same,caspase 3 and 7 activity,[6],not observed
same,viability of PC9 organoids,[2],not observed
COc1cc2c(Oc3ccc(NC(=O)C4(C(=O)Nc5ccc(F)cc5)CC4)cc3F)ccnc2cc1OCCCN1CCOCC1 [Foretinib],MaMTH-DS reporter activity,AXL,"strongly reduced, in a dose-dependent manner"
same,reporter cell viability,[7],unaffected
C=CC(=O)Nc1cccc(C)c1Nc1ncc2cc(-c3c(Cl)c(OC)cc(OC)c3Cl)ccc2n1 [BLU9931],reporter cell viability,[8],no effect
"CO[C@@H]1[C@H](N(C)C(=O)c2ccccc2)C[C@H]2O[C@]1(C)n1c3ccccc3c3c4c(c5c6ccccc6n2c5c31)C(=O)NC4 [Midostaurin, N-[(9S,10R,11R,13R)-2,3,10,11,12,13-hexahydro-10-methoxy-9-methyl-1-oxo-9,13-epoxy-1H,9H-diindolo[1,2,3-gh:3′,2′,1′-lm]pyrrolo[3,4-j][1,7]benzodiazonin-11-yl]-N-methylbenzamide]",Average Percent,EGFR-WT,129.3%
same,Average Percent,EGFR-L858R-T790M-C797S,10.5%
same,effect on kinase activity,wild-type EGFR,no significant effect
same,effect on kinase activity,EGFR ex19del/T790M/C797S,strongly inhibited
same,effect on kinase activity,EGFR double mutants,inhibits the kinase activity
same,cell viability,"[4]; compound alone, 72 hours","robust, dose-dependent reduction"
same,cell viability in combination with anti-EGFR antibody,[4],Enhanced effect
same,cell viability,"[5]; compound alone, 72 hours","robust, dose-dependent reduction"
same,cell viability in combination with anti-EGFR antibody,[5],Enhanced effect
same,phosphorylation and/or expression of EGFR and downstream signalling molecules,[9],strongest response
same,phosphorylation and/or expression of EGFR and downstream signalling molecules,[10],strongest response
same,phosphorylation and/or expression of EGFR and downstream signaling molecules,[1],inhibitory effect
same,caspase 3 and 7 activity,[6],dose-dependent activation
same,caspase 3 and 7 activity,CFBE cells,not observed
same,viability of PC9 organoids,[2],dose-dependent reduction
same,cell viability in combination with compound 5213777,[3],increased effect
same,cell viability in combination with Panitumumab,[3],Enhanced effects
CC1CC(Nc2ccccc2)c2ccccc2N1C(=O)c1cccs1 (stereo not drawn) [Compound 5304079],WT > 50% Inhibition,EGFR-WT,YES
same,Average Percent,EGFR-WT,21.5%
same,Average Percent,EGFR-L858R-T790M-C797S,11.7%
O=c1c(Cl)c(Cl)cnn1Cc1ccccc1 [Compound 5357830],WT > 50% Inhibition,EGFR-WT,YES
same,Average Percent,EGFR-WT,6.2%
same,Average Percent,EGFR-L858R-T790M-C797S,0.9%
C[C@@H](Oc1cc(-c2cnn(C3CCNCC3)c2)cnc1N)c1c(Cl)ccc(F)c1Cl [Crizotinib],reporter cell viability,[11],not due to a loss in cell viability
C#Cc1cccc(Nc2ncnc3cc(OCCOC)c(OCCOC)cc23)c1 [Erlotinib],MaMTH-DS interaction with Shc1,MET,not
same,MaMTH-DS reporter activity,FGFR4,not
same,MaMTH-DS reporter activity,AXL,not
"CCN(CC)c1ccc2cc(-c3nc4ccccc4o3)c(=O)oc2c1 [Compound 5213777, 3-(1,3-benzoxazol-2-yl)-7-(diethylamino)-2H-chromen-2-one]","interaction / complex formation with Shc1 (MaMTH, words)",EGFR-WT,not
same,Average Percent,EGFR-WT,105.3%
same,Average Percent,EGFR-L858R-T790M-C797S,27.8%
same,MaMTH-DS interaction with Shc1,MET,not
same,MaMTH-DS reporter activity,FGFR4,not
same,MaMTH-DS reporter activity,AXL,not
same,MaMTH-DS reporter activity,ALK,not
same,effect on kinase activity,wild-type EGFR,no kinase inhibitory activity
same,effect on kinase activity,EGFR ex19del/T790M/C797S,no kinase inhibitory activity; also recorded: does not inhibit the kinase activity
C/C(=C\c1ccc(Cl)cc1)[N+](=O)[O-] [Compound 5238658],WT > 50% Inhibition,EGFR-WT,YES
same,Average Percent,EGFR-WT,0.9%
same,Average Percent,EGFR-L858R-T790M-C797S,0.2%
COc1cc(N2CCC(N3CCN(C)CC3)CC2)ccc1Nc1ncc(Cl)c(Nc2ccccc2P(C)(C)=O)n1 [Brigatinib],reporter cell viability,[12],unaffected
